In patent US4558052A, “10-Bromosandwicine, 10-bromoisosandwicine, pharmaceutical compositions thereof, and methods of treating heart rhythm disorders with them” (Kali-Chemie Pharma GmbH, priority 1979, dated 1985):
Entries after “also recorded” stand apart in the source; their conditions may differ. Where a name gives a salt, the structure may show the parent alone.

Legend:
[1] = words, known from literature; cited from earlier work
male NMRI-mice [2] = assay: Acute toxicity LD50 i.p. and p.o. in mice; assay type: in vivo; conditions: probit analysis
Experimental: A. Determination of acute toxicity LD50 i.p. and p.o. in mice.
The acute toxicity of the compounds is determined in male NMRI-mice (body weight range 18-22 g) after i.p. or p.o. administration. The LD50 values are calculated by means of electronic data processing through a probit analysis.

male NMRI-mice [3] = assay: Minimum symptom dose at which any undesirable side effects are detected (Campbell and Richter); assay type: in vivo; conditions: dose causing changes in behaviour in 2 out of 3 mice
Experimental: B. Determination of minimum symptom dose at which any undesirable side effects are detected.
The minimum symptom dose is determined in male NMRI-mice (body weight range 18-22 g) according to the procedure of Campbell and Richter (see D. E. S. Campbell and W. Richter. Acta Pharmacol. Toxicol. 25 (1967) pp. 345-363). The minimum symptom dose is defined as that dose in μmol/kg which after i.p. administration causes changes in behaviour in 2 out of 3 mice. The minimum symptom dose is a measure for evaluation of undesirable side effects.

[4] = system: cardiac extra-systoles induced by aconitine; assay: Antiarrhythmic activity against cardiac extra-systoles induced by aconitine in rats (Raschack); assay type: in vivo; conditions: i.v., equitoxic dose about 5% of the i.p. LD50 in mice, aconitine 5 μg/kg/min i.v., vs control group
Experimental: C. Determination of antiarrhythmic activity against cardiac extra-systoles induced by aconitine in rats.
The protective effects of the compounds against extra-systoles (ES) caused by aconitine infusion in rats are determined according to the method of Raschack (Arzneimittelforsch. 25 (1975) 639-641).
Male Wistar rats having a body weight of 320-400 g are anesthetized by i.p. application of 1.25 g/kg urethane. The animals are placed on their backs and their electrocardiogram is registered every 30 seconds during the test. The animals are given an i.v. aconitine infusion at an infusion rate of 5 μg/kg/min of aconitine with an infusion volume of 0.1 ml/minute. 5 Minutes prior to starting the aconitine infusion the animals are given a solution of the test compound in an amount of 2 ml/kg bodyweight of isotonic NaCl solution by i.v. infusion over a period of about 2.5 minutes. A control group of animals is given only the vehicle solution. The infusion time until occurence of extra-systoles is determined.
Antiarrhythmically active test compounds lead to a retardation of the onset of aconitine-induced cardiac extra-systoles in the treated animals as compared with the group of control animals. The degree of prolongation of aconitine-infusion time and thus of increase of administered amount of aconitine up to which the animals are protected against the aconitine induced extra-systoles is an indication of the degree of antiarrhythmic activity of the test compounds.
Equitoxic doses of the test compounds are used namely doses which correspond to about 5% of the i.p. LD50 of the compound in mice. The % increase in aconitine infusion time (that is % increase of administered amount of aconitine) until onset of the extra-systoles in the treated animals as compared with the control group is determined.

[5] = Antiarrhythmic activity in a standard pharmacological in vivo test procedure; conditions: words

SMILES | cardiac / antiarrhythmic activities [1] | Toxicity LD50 i.p. (male NMRI-mice [2]) | Toxicity LD50 p.o. (male NMRI-mice [2]) | Minimum symptom dose i.p. (male NMRI-mice [3]) | also measured
CCC1C2CC3C4N(C)c5ccc(Br)cc5C45CC(C2C5O)N3C1O (stereo not drawn) [10-bromoajmaline] | cardiac activities |  |  |  | 
CCC1C2CC3C4N(C)c5ccc(Br)cc5C45CC(C2C5O)N3C1O (stereo not drawn) [10-bromoisosandwicine hydrogen tartrate, 10-bromoisosandwicinium hydrogentartrate] |  | 25 µmol/kg | 65 µmol/kg | 3 µmol/kg | Antiarrhythmic activity, ES-inhibiting effect: % prolongation of aconitine infusion time until onset of extra-systoles [4]: 25%
CCC1C2CC3C4N(C)c5ccc(Br)cc5C45CC(C2C5O)N3C1O (stereo not drawn) [10-bromosandwicine hydrogen tartrate, 10-bromosandwicine hydrogentartrate] |  | 307 µmol/kg | 2200 µmol/kg | 92 µmol/kg | Antiarrhythmic activity, ES-inhibiting effect: % prolongation of aconitine infusion time until onset of extra-systoles [4]: 25%
CC[C@H]1[C@@H]2C[C@H]3[C@@H]4N(C)c5ccccc5[C@]45C[C@@H]([C@H]2[C@H]5O)N3[C@@H]1O [Ajmaline] | cardiac activities including antiarrhythmic activities |  |  |  | 
CCC1C2CC3C4N(C)c5ccccc5C45CC(C2C5O)N3C1O (stereo not drawn) [Isosandwicine hydrogen fumarate] |  | ~ 56 μmol/kg | 471 µmol/kg | 10 µmol/kg | ES-inhibiting effect (result in words) [4]: not significant
CCC1C2CC3C4N(C)c5ccccc5C45CC(C2C5O)N3C1O (stereo not drawn) [Sandwicine hydrogen tartrate] |  | ~ 325 μmol/kg | 1530 µmol/kg | 58 µmol/kg | ES-inhibiting effect (result in words) [4]: not significant
CC[C@@H]1[C@H]2C[C@H]3[C@@H]4N(C)c5ccccc5[C@]45C[C@@H](C2[C@H]5O)N3[C@H]1O (stereo partly drawn) [isoajmaline] | cardiac activities including antiarrhythmic activities |  |  |  | 
CCC1C2CC3C4N(C)c5ccccc5C45CC(C2C5O)N3C1O (stereo not drawn) [isosandwicine] |  |  |  |  | antiarrhythmic activity [5]: no significant antiarrhythmic effects; also recorded: no significant antiarrhythmic activities
CCC1C2CC3C4N(C)c5ccccc5C45CC(C2C5O)N3C1O (stereo not drawn) [sandwicine, Sandwicine] |  |  |  |  | antiarrhythmic activity [5]: no significant antiarrhythmic effects; also recorded: no significant antiarrhythmic activities
